Here are results for nine compounds from patent US20220259249A1, “INHIBITORS OF ANTIBIOTIC RESISTANCE MEDIATED BY ARNT” (priority 2019, published 2022).

For data set [1], the system named is P. aeruginosa strains resistant and sensitive to colistin. The data set can be described thus: MIC of colistin in presence of BBN149 or DMSO, P. aeruginosa strains. As to conditions: colistin without BBN149. Type of data set: cell-based. The procedure: (§1) All the colistin-resistant strains used depend on the aminoarabinosylation of lipid A as a mechanism of resistance to colistin (Lo Sciuto e Imperi, 2018; Esposito et al., 2018). […] MIC essays were performed in 96-well microtitration plates, using previously characterized P. aeruginosa and K. pneumoniae strains (Lo Sciuto e Imperi, 2018; Esposito et al., 2018). […] At least three independent experiments were conducted for each strain.

In data set [2] the test system is colistin-resistant clinical strains of Klebsiella pneumoniae. The data set can be described thus: MIC of colistin in presence of BBN149 or DMSO, K. pneumoniae clinical strains. Type of data set: cell-based. Conditions: colistin without BBN149. The procedure: as §1
In data set [3] the test system is P. aeruginosa PA14 col^R 5 (colistin-resistant strain). The data set can be described thus: microbe, parasite or virus in culture. Type of data set: cell-based. Conditions: for inhibition of bacterial growth in the presence of colistin: colistin 8 μg/ml; for antibacterial activity per se: in the absence of colistin; for IC90: read-out: IC90, synergy with colistin (8 μg/ml), minimum concentration causing at least 90% growth inhibition. The procedure: The compounds identified by in silico screening were tested for their antibacterial activity (in the absence of colistin) and for their synergistic or adjuvant activity with colistin against a colistin-resistant strain of P. aeruginosa grown in the absence or presence of a sub-inhibitory concentration of colistin (8 μg/ml).
This strain over-expresses the am genes responsible for the modification of lipopolysaccharide by the addition of L-amino-arabinose.
The strain was grown in Mueller-Hinton (MH) medium for 8 hours, and inoculated at a cell density of ˜10^6/ml in MH medium supplemented or not with colistin at a concentration of 16 μg/ml. […] The microtitration plates were incubated at 37° C. without stirring for 24 hours. Bacterial growth was assessed by measuring absorbance at 600 nm (A600) in a microplate reader (Victor 2^V, Perkin-Elmer). […] For each compound three independent experiments were conducted, and the averages of the values obtained in the three experiments are considered to determine the values of IC50 e IC90.

Data set [4] deals with 16HBE cells (human epithelial cells of bronchial origin). The data set can be described thus: Cell viability test (MTT reduction).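 Note: formazan absorbance at 570 nm after MTT reduction, corrected for cell-free blank wells, reported relative to untreated cells, from duplicate wells over three independent repeats.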
Method: The cytotoxic potential of the compounds was evaluated on cell cultures in vitro. […] The results are reported in the table as viability (%) compared to untreated cells (Table 4).
To evaluate the cytotoxic potential of the compounds under examination, the MTT (3-(4,5-dimethylthiazol-2-yl)-2,5-diphenyltetrazolium) reduction test, commonly used to monitor cell viability was used following the exposure to potentially cytotoxic agents. The essay is based on the reduction of MTT to formazan, a compound that assumes a blue colour which can be evaluated by spectrophotometric reading at a wavelength of 570 nm. For the essay we used the 16HBE cell line. […] Each test was performed in duplicate and three independent replicas were made.
Cell viability was calculated as follows:
COD570=OD570 of sample−OD570 of wells without cells (white)
Viability=100−reduction (%)
where: NT indicates the samples of cells non-threated with the compounds; T the samples of cells treated with the compounds at the different concentrations.
The mean cell viability values were calculated using the Excel mean and standard deviation functions.
The mark [5] stands for this setting: Pseudomonas aeruginosa, PA14, 24 h, read-out: IC50 without colistin.
Where [6] appears, read: read-out: IC50, synergy with colistin (8 μg/ml), PA14 ColR5, colistin 8 μg/ml (sub-inhibitory), minimum concentration causing at least 50% growth inhibition, 24 h.
Where [7] appears, read: PA14 ColR5, colistin 8 μg/ml (sub-inhibitory), 24 h.
Where [8] appears, read: 16HBE, 1.95 μM, 18 hours, MTT, vs untreated cells.
Setting [9] is: 16HBE, 3.91 μM, 18 hours, MTT, vs untreated cells.
Setting [10] is: 16HBE, 7.81 μM, 18 hours, MTT, vs untreated cells.
Where [11] appears, read: 16HBE, 15.63 μM, 18 hours, MTT, vs untreated cells.
Setting [12] is: 16HBE, 125 μM, 18 hours, MTT, vs untreated cells.
Setting [13] is: 16HBE, 250 μM, 18 hours, MTT, vs untreated cells.
Where [14] appears, read: 16HBE, 62.5 μM, 18 hours, MTT, vs untreated cells.

Read-outs that look alike come from different tables or passages of the source.

Turning to colistin [reference compound], the “MIC of colistin with 0.6% DMSO as a control” value (“MIC of colistin with 0.6% DMSO” below) amounted to 0.5 µg/mL in data set [1] (strain KK1); 128 µg/mL in data set [1] (strain KK1 col^R 1); 0.5 µg/mL in data set [1] (strain KK27); 64 µg/mL in data set [1] (strain KK27 col^R 6); 0.5 µg/mL in data set [1] (strain PA14); 64 µg/mL in data set [1] (strain PA14 col^R 5). The “MIC of colistin with 0.6% DMSO” value worked out at 0.5 µg/mL in data set [1] (strain TR1); 16 µg/mL in data set [1] (strain TR1 col^R 6); 128 µg/mL in data set [2] (strain KP-Mo-3); 128 µg/mL in data set [2] (strain KP-Mo-5); 32 µg/mL in data set [2] (strain KP-Mo-6); 64 µg/mL in data set [2] (strain KP-Mo-11). The “MIC of colistin with 0.6% DMSO” value in data set [2] (strain KP-Mo-16) was determined as 64 µg/mL.
As to `C[C@]12C=C[C@@]3(CCC4[C@@](C)(COC(=O)CC(=O)O)CCC[C@@]4(C)C3CC1)C2` (stereo partly drawn) [FDM, ent-beyer-15-en-18-O-malonic acid], the IC50 in data set [3] (setting [5]) was greater than 250 µM; in data set [3] (setting [6]) it was 62.5 µM. Besides, the “inhibition of bacterial growth in the presence of colistin” value in data set [3] is “able to inhibit bacterial growth in the presence of colistin”. Besides, the “antibacterial activity per se” value in data set [3] was “none of the compounds showed antibacterial activity per se”. The IC90 in data set [3] (setting [7]) was greater than 250 µM. In addition, the “Average percentage of cell viability (±standard deviation)” value in data set [4] worked out at 106.63 ± 2.87%; in data set [4] (setting [8]), 102.92 ± 7.31%; in data set [4] (setting [9]), 96.70 ± 1.60%; in data set [4] (setting [10]) it was 97.93 ± 2.17%; in data set [4] (setting [11]), 107.42 ± 0.01%; in data set [4] (16HBE, 31.25 μM, 18 hours, MTT, vs untreated cells), 113.17 ± 8.95%. The “Average percentage of cell viability (±standard deviation)” value in data set [4] (setting [12]) is listed as 100.48 ± 12.78%; in data set [4] (setting [13]), 85.01 ± 2.40%.
In the case of `C[C@]12C=C[C@@]3(CCC4[C@@](C)(COC(=O)CCC(=O)O)CCC[C@@]4(C)C3CC1)C2` (stereo partly drawn) [FDS, ent-beyer-15-en-18-O-succinic acid], the figures for the IC50 in data set [3] (setting [5]) and in data set [3] (setting [6]) were greater than 250 µM and 31.2 µM, respectively. The “inhibition of bacterial growth in the presence of colistin” value in data set [3] is “able to inhibit bacterial growth in the presence of colistin”. Further, in data set [3], the “antibacterial activity per se” value was “none of the compounds showed antibacterial activity per se”. In addition, the IC90 in data set [3] (setting [7]) is greater than 250 µM. Besides, the “Average percentage of cell viability (±standard deviation)” value in data set [4] worked out at 102.95 ± 6.74%; in data set [4] (setting [8]), 98.93 ± 5.38%; in data set [4] (setting [9]), 95.34 ± 8.28%; in data set [4] (setting [10]), 93.53 ± 2.01%; in data set [4] (setting [11]), 99.77 ± 6.58%; in data set [4] (setting [14]) it was 102.15 ± 3.15%. For the same compound, the “Average percentage of cell viability (±standard deviation)” value in data set [4] (setting [12]) stood at 105.88 ± 1.31%; in data set [4] (setting [13]) it was 86.12 ± 3.18%.
Take `C[C@@]12CCC3[C@@](CCC4[C@@]3(C)CCC[C@@]4(C)C(=O)O)(CC1)C2` (stereo partly drawn) [SR10, ent-beyeran-19-oic acid]: the IC50 in data set [3] (setting [5]) was greater than 250 µM. The IC90 in data set [3] (setting [7]) is greater than 250 µM. The “Average percentage of cell viability (±standard deviation)” value in data set [4] was 99.52 ± 9.52%; in data set [4] (setting [8]) it was 105.21 ± 6.73%; in data set [4] (setting [9]), 104.95 ± 6.36%; in data set [4] (setting [10]) it was 101.00 ± 7.12%; in data set [4] (setting [11]), 97.98 ± 1.66%; in data set [4] (setting [14]), 99.80 ± 4.30%. For the same compound, the figures for the “Average percentage of cell viability (±standard deviation)” value in data set [4] (setting [12]) and in data set [4] (setting [13]) were 92.07 ± 5.47% and 1.47 ± 2.29%, respectively. Further, the “reduction in cell viability” value in data set [4] (16HBE, highest concentration (250 μM), 18 hours) is “total reduction of cell viability”.
Take `C=C1C[C@@]23CCC4[C@@](C)(CCC[C@@]4(C)C(=O)O)C2CC[C@]1(O)C3` (stereo partly drawn) [SR5, 13-hydroxy-kaur-16-en-19-oic acid]: the IC50 in data set [3] (setting [5]) and in data set [3] (setting [6]) was greater than 250 µM in each case. The IC90 in data set [3] (setting [7]) was greater than 250 µM.
In the case of `C[C@@]12CCC3[C@@](CCC4[C@](C)(CO)CCC[C@]43C)(CC1)C2` (stereo partly drawn) [SR9, ent-beyeran-19-ol], the IC50 in data set [3] (setting [5]) and in data set [3] (setting [6]) was greater than 250 µM throughout. Also, the IC90 in data set [3] (setting [7]) was greater than 250 µM.
`CC(C)=CCC/C(C)=C/COc1ccc(C(=O)/C=C/c2ccccc2)cc1` [BBN154, 4′-O-geranil-calcone]: the IC50 in data set [3] (setting [5]) and in data set [3] (setting [6]) was greater than 250 µM each time. Further, the IC90 in data set [3] (setting [7]) was greater than 250 µM.
In the case of `O=C1c2c(O)cccc2[C@H]([C@@H]2O[C@H](CO)[C@@H](O)[C@H](O)[C@H]2O)c2cc(CO)cc(O)c21` [BBN36, (10S)-1,8-dihydroxy-3-(hydroxymethyl)-10-[(2S, 3R, 4R, 5S, 6R)-3,4,5-trihydroxy-6-(hydroxymethyl)oxan-2-yl]-10 H-anthracen-9-one], the IC50 in data set [3] (setting [5]) and in data set [3] (setting [6]) was greater than 250 µM throughout. Moreover, the IC90 in data set [3] (setting [7]) is greater than 250 µM.
For the compound `C[C@@]12CCC3[C@@](CCC4[C@](C)(COC(=O)C(=O)O)CCC[C@]43C)(CC1)C2` (stereo partly drawn) [SR8, ent-beyeran-19-O-oxalic acid], the IC50 in data set [3] (setting [5]) is greater than 250 µM. Further, in data set [3] (setting [7]), the IC90 is greater than 250 µM. Further, the “Average percentage of cell viability (±standard deviation)” value in data set [4] was found to be 90.55 ± 4.17%; in data set [4] (setting [8]) it was 100.17 ± 14.21%; in data set [4] (setting [9]) it was 97.84 ± 10.19%; in data set [4] (setting [10]), 90.33 ± 4.26%; in data set [4] (setting [11]), 92.64 ± 6.57%; in data set [4] (setting [14]), 85.68 ± 6.99%. For the same compound, the “Average percentage of cell viability (±standard deviation)” value stood at 78.02 ± 7.46% in data set [4] (setting [12]) and 80.16 ± 2.01% in data set [4] (setting [13]).
